This is an account of results in paper PMC5826112, “Intrapulmonary Pharmacokinetics of Relebactam, a Novel β-Lactamase Inhibitor, Dosed in Combination with Imipenem-Cilastatin in Healthy Subjects” (Antimicrobial Agents and Chemotherapy, 2018).

Structures are written as SMILES. “Also recorded” adds a separate entry of the source. Like-named read-outs stand apart in the source and are kept apart here.

On the set-up of series [1]: method as in PMID 26349830. The settings on record: healthy adults, meropenem-RPX7009; cited from earlier work.
Details of series [2]: method as in PMID 21300830. The note with it: patients with ventilator-associated pneumonia; cited from earlier work.
The nature of series [3]: Intrapulmonary (ELF, AC) and plasma pharmacokinetics after multiple-dose IV relebactam with imipenem-cilastatin, bronchoscopy/BAL, noncompartmental analysis. The series is classed as in vivo, human (healthy subjects). The note with it: for t1/2 (terminal half-life) / half-life / AUC(0-inf) / Cmax / Tmax / AUC(0-t): mean profile; for half-life: read-out: t1/2 (terminal half-life) (converted); for AUC(0-inf): noncompartmental analysis; for AUC(0-t): read-out: AUC0–3; for concentrations in AC (alveolar cells): result in words. On the procedure:
Dosing and administration of imipenem-cilastatin were carried out in a manner consistent with the recommended labeled posology. BAL fluid specimens were obtained during bronchoscopy for the determination of the relebactam and imipenem concentrations in the ELF and AC. Four aliquots of normal saline (50 ml each) were sequentially instilled and aspirated after each instillation. The first aspirate was discarded, and the remaining aspirates were pooled and used to obtain urea and drug level measurements. Aliquots were obtained for cell count/differential, and the remainder of the pooled aspirates was centrifuged. The liquid aspirate and cell pellet were separated and stored at −70°C. The supernatant was sent for urea and drug level measurements. Blood samples were collected prior to the first and fifth doses of study drug for the determination of relebactam and imipenem plasma concentrations. Blood samples were also collected during the bronchoscopy/BAL procedure for the determination of relebactam, imipenem, and urea concentrations. Relebactam and imipenem levels in plasma, pulmonary ELF, and AC were measured simultaneously via acetonitrile protein precipitation and hydrophilic interaction liquid chromatography (HILIC) with detection via liquid chromatography-tandem mass spectrometry (LC-MS/MS). The system consisted of a Waters Acquity ultraperformance liquid chromatograph (Waters Corp., Milford, MA) and an API 4000 or 5000 triple-quadrupole tandem mass spectrometer (Sciex, Framingham, MA) equipped with a turbo-ion spray interface and operated in the positive ionization mode. The multiple reaction monitoring (MRM) transitions monitored were m/z 349 → 269 for relebactam, m/z 300 → 98 for imipenem, and m/z 354 → 274 and m/z 307 → 98 for their respective internal standards. […] The ELF volumes recovered by BAL were determined by using urea as an endogenous marker to provide a dilution ratio by measurement of urea concentrations in the BAL fluid and serum ([33]). […] The mean value for each time point was used to conduct the noncompartmental analysis using Phoenix (version 6.3) software (Pharsight Corporation, Mountain View, CA) and to calculate the values of the PK parameters on the basis of the mean profile in each matrix.

The conditions of series [4]: no reference given; cited from earlier work.
The conditions of series [5]: healthy adults, ceftolozane-tazobactam; cited from earlier work.
For series [6] the following is noted: critically ill patients, multiple doses of piperacillin-tazobactam; cited from earlier work.
Details of series [7]: method as in PMID 17039351. The settings on record: multiple-dose, adult patients with ventilator-associated pneumonia; cited from earlier work.
Details of series [8]: method as in PMID 7831630. The settings on record: orally administered amoxicillin-clavulanate; cited from earlier work.
The mark [9] stands for this setting: both sexes, human, intravenous, ELF, same regimen.
[10] abbreviates: both sexes, human, intravenous, plasma, same regimen.

A word on the AUC(0-inf): it is the area under the concentration-time curve extrapolated to infinity. The term Cmax denotes the highest concentration seen after dosing. What is called Tmax is the time at which the peak concentration occurs.

In the case of `C[C@@H](O)[C@H]1C(=O)N2C(C(=O)O)=C(S[C@@H]3CN[C@H](C(=O)N(C)C)C3)[C@H](C)[C@H]12` [meropenem], the “mean penetration ratio based on AUC” value in series [1] was 63%. Further, in series [2], the “ELF/plasma concentration ratio estimated by population modeling” value was 30%.
`C[C@@H](O)[C@H]1C(=O)N2C(C(=O)O)=C(SCCN=CN)C[C@H]12` [imipenem]: the “t1/2 (terminal half-life)” value in series [3] (ELF, same regimen) was found to be 61.8 min; in series [3] (plasma, same regimen) it was 57 min. Further, the half-life in series [3] (both sexes, human, ELF, intravenous, ELF, same regimen) was 60 min; in series [3] (both sexes, human, plasma, intravenous, plasma, same regimen), 60 min. The concentration at 0.5 h in series [3] (both sexes, human, ELF, intravenous, same regimen, 0.5 h after last dose, n=4, read-out: concn in ELF, GM) stood at 32.1 µM. For the same molecule, the concentration at 1 h in series [3] (both sexes, human, ELF, intravenous, same regimen, 1 h after last dose, n=4, read-out: concn in ELF, GM) amounted to 20.3 µM. In addition, the concentration at 1.5 h in series [3] (both sexes, human, ELF, intravenous, same regimen, 1.5 h after last dose, n=4, read-out: concn in ELF, GM) came out at 16.5 µM. Also, the concentration at 3 h in series [3] (both sexes, human, ELF, intravenous, same regimen, 3 h after last dose, n=4, read-out: concn in ELF, GM) is 5.99 µM. For the same molecule, the Kp in series [3] (both sexes, human, ELF/plasma, intravenous, calculated as 100 · ELF AUC0–∞/plasma AUC0–∞/0.8, adjusted for protein binding (80% unbound in plasma, 100% free in ELF), read-out: Adjusted ELF/plasma AUC0–∞ ratio) is 0.55; in series [3] (both sexes, human, ELF/plasma, intravenous, calculated as 100 · ELF AUC0–∞/plasma AUC0–∞, mean profiles, read-out: ELF/plasma AUC0–∞ ratio), 0.442; in series [3] (both sexes, human, ELF/plasma, intravenous, same regimen, 0.5 to 3 h after last dose, read-out: GMRs for ELF/plasma concentrations, range across time points) it was 0.32 to 0.55. Further, the Kp at 1 h in series [3] (both sexes, human, ELF/plasma, intravenous, same regimen, 1.0 h after last dose, n=4, read-out: ELF/plasma concn GMR (90% CI)) came out at 0.36. The Kp at 1.5 h in series [3] (both sexes, human, ELF/plasma, intravenous, same regimen, 1.5 h after last dose, n=4, read-out: ELF/plasma concn GMR (90% CI)) came out at 0.55. The Kp at 3 h in series [3] (both sexes, human, ELF/plasma, intravenous, same regimen, 3.0 h after last dose, n=4, read-out: ELF/plasma concn GMR (90% CI)) turned out to be 0.5. In series [3] (both sexes, human, ELF/plasma, iv, healthy subjects, relebactam 250 mg with imipenem-cilastatin 500 mg IV every 6 h, 5 doses, 0.5 h after last dose, n=4, read-out: ELF/plasma concn GMR (90% CI)), the Kp at 0.5 h is 0.32. Moreover, the area under the curve AUC(0-inf) in series [3] (setting [9]) amounted to 57.4 µM·h; in series [3] (setting [10]), 130 µM·h. The Cmax in series [3] (setting [9]) was found to be 32.6 µM; in series [3] (setting [10]) it was 99.6 µM. In addition, the Tmax in series [3] (setting [9]) and in series [3] (setting [10]) was 30 min throughout. In addition, the AUC(0-t) in series [3] (setting [9]) was 48.4 µM·h; in series [3] (setting [10]), 114 µM·h. In series [3] (calculated as 100 · ELF AUC0–∞/plasma AUC0–∞/0.8, adjusted for protein binding (80% unbound in plasma, 100% free in ELF)), the “Adjusted ELF/plasma AUC0–∞ ratio” value is given as 55.2%. The “concentrations in AC (alveolar cells)” value in series [3] (same regimen) is recorded as “below the limit of quantitation”; in series [3] (same regimen, listed as Imipenem) it was “undetectable in the majority of patients; also recorded: not detected”. Also, in series [4], the “unbound in plasma (free fraction)” value is recorded as 80%.
Take `C[C@]1(Cn2ccnn2)[C@H](C(=O)O)N2C(=O)C[C@H]2S1(=O)=O` [tazobactam]: in series [5], the “ELF/plasma AUC ratio” value is on record as 44%. Besides, the “mean concentrations in ELF relative to total concentrations in plasma” value in series [6] is given as approximately 91%.
Regarding `C[C@@H](O)[C@H]1C(=O)N2C(C(=O)O)=C(S[C@@H]3CN[C@H](C(=O)Nc4cccc(C(=O)O)c4)C3)[C@H](C)[C@H]12` [ertapenem], the “ratios of ELF concentrations to total plasma concentrations, median” value in series [7] is 0.32.
As for `Cn1c(N)c(NC(=O)NCCN)c[n+]1CC1=C(C(=O)O)N2C(=O)[C@@H](NC(=O)/C(=N\OC(C)(C)C(=O)[O-])c3nsc(N)n3)[C@H]2SC1` [ceftolozane], the “ELF/plasma AUC ratio” value in series [5] is recorded as 48%.
Regarding `O=C(O)[C@H]1/C(=C/CO)O[C@@H]2CC(=O)N21` [clavulanate], the “concentrations in ELF relative to those in plasma” value in series [8] was “less than 20%”.
As for `CC1(C)S[C@@H]2[C@H](NC(=O)[C@H](N)c3ccc(O)cc3)C(=O)N2[C@H]1C(=O)O` [amoxicillin], the “concentrations in ELF relative to those in plasma” value in series [8] is given as “less than 20%”.
Regarding `O=C(O)C[C@@H]1CC[C@H](NC(=O)Cc2cccs2)B(O)O1` [RPX7009], the “mean penetration ratio based on AUC” value in series [1] is listed as 53%.
